Consider seven compounds from article PMC7946403, “Targeted LC-MS/MS platform for the comprehensive determination of peptides in the kallikrein-kinin system” (Analytical and Bioanalytical Chemistry, 2021).

Where a name gives a salt, the structure may show the parent alone.

System in the first series: not given
Assay: not given
Settings: not given
The class given is in vitro ADME, human. On the procedure: In this study, human blank plasma was generated by sampling blood into trisodium citrate S-Monovettes® spiked with hexadimethrine bromide and nafamostat mesylate to prevent the artificial generation of bradykinin. After centrifugation at 2000×g for 10 min at room temperature, the plasma was left at room temperature for 4 h to enable degradation of short-lived kinins. The blank plasma generated was stored at −20 °C until use.
Before preparation of quality control (QC) or calibration curve samples, a protease inhibitor was added to blank plasma samples, following a protocol derived from Nussberger et al.. Solid-phase extraction (SPE) was performed using 96-well Oasis weak cation exchange (WCX) μ-elution plates (Waters, Milford, MA, USA). The wells were conditioned with 200 μL methanol, followed by 200 μL water. […]
Finally, stability was examined using three replicates of four QC levels (high [750.0 pg/mL], mid [125.0 pg/mL] and low [31.1 pg/mL and 7.8 pg/mL]). […] Freeze-thaw stability was determined after one, two and four cycles of complete thawing and refreezing of samples at −80 °C. Furthermore, long-term stability of the plasma samples was analysed after 1, 2 and 4 weeks. For all stability investigations, the maximum deviation of the calculated concentration to the nominal concentration compared to a freshly prepared calibration curve was ≤15% (RE).
With “bradykinin 1-5 (RPPGF; Bradykinin; UniProt P01042 381-385, looked up, fragment)”, the “Freeze-thaw stability (in words)” value is on record as “trended towards a decrease”.

“bradykinin 1-7 (RPPGFSP; Bradykinin; UniProt P01042 381-387, looked up, fragment)”: the “Freeze-thaw stability (in words)” value is listed as “trended towards a decrease”.

The test system of the next series is artificial generation of bradykinin. Briefly: Evaluation of inhibitors preventing the artificial formation of bradykinin for generation of blank plasma. The settings on record: plasma from prespiked S-Monovettes stored at 21 °C, analysed after 30 min, 1.5 h and 4.5 h, n = 3. Further details: species or system human. On the procedure:
Due to the endogenous presence of kinins in human plasma, it was aimed to develop a surrogate matrix mimicking human biological samples at best. Therefore, distinct serine protease inhibitors were evaluated for their ability to prevent the artificial generation of bradykinin after blood sampling. […] Therefore, plasma was drawn into prespiked S-Monovettes® and aliquots of the plasma stored at 21 °C were analysed after 30 min, 1.5 h and 4.5 h. The following inhibitors were investigated and compared to plasma without inhibitor (each n = 3): 4-(2-aminoethyl)benzolsulfonylfluoride (AEBSF), hexadimethrine bromide, aprotinin, nafamostat mesylate and leupeptin. Additionally, the final blank generation protocol was evaluated for six human sources, whose generated blanks were analysed in triplicate to ensure the depletion of endogenous peptides across multiple sources.
As for hexadimethrine bromide, the “Prevention of artificial generation of bradykinin (in words)” value (shortened to “Prevention”) is recorded as “lowest levels of bradykinin were detected”.

As for `CC(=O)N[C@@H](CC(C)C)C(=O)N[C@@H](CC(C)C)C(=O)N[C@H](C=O)CCCNC(=N)N` [leupeptin], the “Prevention” value was “only decreased the formation of bradykinin at the 0.5 h and 1.5 h timepoints”.

Regarding `N=C(N)c1ccc2cc(OC(=O)c3ccc(N=C(N)N)cc3)ccc2c1` [nafamostat, nafamostat mesylate], the “Prevention” value is “only decreased the formation of bradykinin at the 0.5 h and 1.5 h timepoints”.

In the case of aprotinin, the “Prevention” value is “did not sufficiently prevent the artificial generation of bradykinin”.

Turning to `NCCc1ccc(S(=O)(=O)F)cc1` [AEBSF, 4-(2-aminoethyl)benzolsulfonylfluoride], the “Prevention” value was “did not sufficiently prevent the artificial generation of bradykinin”.
